The source of these data is patent US11998539B2, “Substituted aminoquinolones as DGKalpha inhibitors for immune activation” (Bayer Aktiengesellschaft, priority 2019, dated 2024).

DGKα, sequence (P23743 other isoform, or with tags, fused parts or gaps): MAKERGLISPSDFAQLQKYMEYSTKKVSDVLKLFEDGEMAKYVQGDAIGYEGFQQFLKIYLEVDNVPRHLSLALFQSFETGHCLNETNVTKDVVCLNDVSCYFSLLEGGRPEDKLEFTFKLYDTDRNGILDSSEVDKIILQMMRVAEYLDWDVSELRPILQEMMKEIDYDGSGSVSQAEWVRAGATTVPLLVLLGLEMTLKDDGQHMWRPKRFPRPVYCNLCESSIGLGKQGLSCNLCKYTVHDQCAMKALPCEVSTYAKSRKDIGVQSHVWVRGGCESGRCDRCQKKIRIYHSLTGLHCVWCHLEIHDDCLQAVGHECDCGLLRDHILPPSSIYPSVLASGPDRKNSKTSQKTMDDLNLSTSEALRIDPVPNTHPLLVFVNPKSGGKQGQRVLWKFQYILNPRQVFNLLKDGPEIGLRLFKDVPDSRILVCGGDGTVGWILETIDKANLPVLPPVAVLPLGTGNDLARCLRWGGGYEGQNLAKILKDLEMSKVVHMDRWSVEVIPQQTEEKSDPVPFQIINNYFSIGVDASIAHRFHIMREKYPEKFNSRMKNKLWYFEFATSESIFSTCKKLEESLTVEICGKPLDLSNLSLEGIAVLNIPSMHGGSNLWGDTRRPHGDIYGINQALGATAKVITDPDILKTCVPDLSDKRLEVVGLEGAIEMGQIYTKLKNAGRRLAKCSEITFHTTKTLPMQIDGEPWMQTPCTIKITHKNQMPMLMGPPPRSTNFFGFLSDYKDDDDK

The target in this assay is DGKα (Homo sapiens (Human), UniProt P23743). Briefly: Human DGKα kinase activity inhibition assay (ADP-Glo). The format is biochemical. Particulars: recombinant full-length human DGKα, 55 μM ATP, 7 μM 1,2-dioleoyl-sn-glycerol, read-out: IC50 values of examples in in vitro human DGKa kinase activity inhibition assays. A digest of the protocol:
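Activity was measured as ADP production, detected by luciferase luminescence after removal of unused ATP. The enzyme was baculovirus-expressed full-length human DGKα with a C-terminal FLAG tag. The substrate was 1,2-dioleoyl-sn-glycerol in detergent micelles, and compounds came from 100× DMSO solutions.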
In general terms: ADP-Glo turns the ADP formed in a reaction into a luminescent signal.
As usually defined, the IC50 is the concentration that gives 50% inhibition. In the case of `Cc1ccc2oc(C3CCN(c4c(C#N)c(=O)n(C)c5ccc(OCC6CC6)cc45)CC3)nc2c1` [Example 408, 6-(cyclopropylmethoxy)-1-methyl-4-[4-(5-methyl-1,3-benzoxazol-2-yl)piperidin-1-yl]-2-oxo-1,2-dihydroquinoline-3-carbonitrile], the 50% inhibitory concentration (IC50) was 15 nM. To `COc1ccc(C2CCN(c3c(C#N)c(=O)n(C)c4ccc(C5=CCOCC5)cc34)CC2)cc1` [Example 180, 6-(3,6-dihydro-2H-pyran-4-yl)-4-[4-(4-methoxyphenyl)piperidin-1-yl]-1-methyl-2-oxo-1,2-dihydroquinoline-3-carbonitrile] belongs 1510 nM; to `Cn1c(=O)c(C#N)c(N2CCC(c3cccc4nccnc34)CC2)c2ccccc21` [Example 79, 1-methyl-2-oxo-4-[4-(quinoxalin-5-yl)piperidin-1-yl]-1,2-dihydroquinoline-3-carbonitrile], 104 nM. Take `Cc1ccc2oc(C3(C)CCN(c4c(C#N)c(=O)n(C)c5cc(Cl)ccc45)CC3)nc2c1` [Example 228, 7-chloro-1-methyl-4-[4-methyl-4-(5-methyl-1,3-benzoxazol-2-yl)piperidin-1-yl]-2-oxo-1,2-dihydroquinoline-3-carbonitrile]: the IC50 was found to be 2.4 nM. Turning to `Cn1ccc2cc(C3CCN(c4c(C#N)c(=O)n(C)c5ccccc45)CC3)ccc21` [Example 50, 1-methyl-4-[4-(1-methyl-1H-indol-5-yl)piperidin-1-yl]-2-oxo-1,2-dihydroquinoline-3-carbonitrile], the IC50 was 8.3 nM. To `Cn1c(=O)c(C#N)c(N2CCC(c3ccc(Oc4ccccc4)cc3)CC2)c2ccccc21` [Example 56, 1-methyl-2-oxo-4-[4-(4-phenoxyphenyl)piperidin-1-yl]-1,2-dihydroquinoline-3-carbonitrile] belongs 17 nM; to `COc1ccc2oc(C3CCN(c4c(C#N)c(=O)n(C)c5ccccc45)CC3)nc2c1` [Example 386, 4-[4-(5-methoxy-1,3-benzoxazol-2-yl)piperidin-1-yl]-1-methyl-2-oxo-1,2-dihydroquinoline-3-carbonitrile], 9.4 nM; to `Cc1ccc2oc(C3CCN(c4c(C(N)=O)c(=O)n(C)c5ccc(OCC(F)F)cc45)CC3)nc2c1` [Example 504, 6-(2,2-difluoroethoxy)-1-methyl-4-[4-(5-methyl-1,3-benzoxazol-2-yl)piperidin-1-yl]-2-oxo-1,2-dihydroquinoline-3-carboxamide], 238 nM. `CN1CCN(c2ccc(C3CCN(c4c(C#N)c(=O)n(C)c5ccccc45)CC3)cc2)C(=O)C1` [Example 66]: the IC50 is 78 nM.

Turning to `Cc1ccc2oc(C3CCN(c4c(C(N)=O)c(=O)n(C)c5ccc(C(N)=O)cc45)CC3)nc2c1` [Example 499, 1-methyl-4-[4-(5-methyl-1,3-benzoxazol-2-yl)piperidin-1-yl]-2-oxo-1,2-dihydroquinoline-3,6-dicarboxamide], the IC50 amounted to 74 nM. For the compound `Cc1cccc(-c2nnc(C3CCN(c4c(C#N)c(=O)n(C)c5ccccc45)CC3)o2)c1` [Example 353, 1-methyl-4-{4-[5-(3-methylphenyl)-1,3,4-oxadiazol-2-yl]piperidin-1-yl}-2-oxo-1,2-dihydroquinoline-3-carbonitrile], the IC50 was 254 nM. As for `CCCOc1ccc2c(c1)c(N1CCC(C)(c3nc4cc(C)ccc4o3)CC1)c(C#N)c(=O)n2C` [Example 279, 1-methyl-4-[4-methyl-4-(5-methyl-1,3-benzoxazol-2-yl)piperidin-1-yl]-2-oxo-6-propoxy-1,2-dihydroquinoline-3-carbonitrile], the IC50 came out at 1280 nM. For the compound `Cc1cc(F)cc(C2CCN(c3c(C#N)c(=O)n(C)c4ccccc34)CC2)c1` [Example 51, 4-[4-(3-fluoro-5-methylphenyl)piperidin-1-yl]-1-methyl-2-oxo-1,2-dihydroquinoline-3-carbonitrile], the IC50 was determined as 8.3 nM. To `Cn1c(=O)c(C(N)=O)c(N2CCC(c3ccc4c(c3)C3(CCC3)C(=O)N4)CC2)c2ccccc21` [Example 469, 1-methyl-2-oxo-4-[4-(2′-oxo-1′,2′-dihydrospiro[cyclobutane-1,3′-indol]-5′-yl)piperidin-1-yl]-1,2-dihydroquinoline-3-carboxamide] belongs 33 nM; to `Cc1ccc2oc(C3CCN(c4c(C(N)=O)c(=O)n(C)c5c(Br)cccc45)CC3)nc2c1` [Example 493, 8-bromo-1-methyl-4-[4-(5-methyl-1,3-benzoxazol-2-yl)piperidin-1-yl]-2-oxo-1,2-dihydroquinoline-3-carboxamide], 80 nM; to `Cn1c(=O)c(C(N)=O)c(N2CCC(c3ccccc3)CC2)c2ccccc21` [Example 114, 1-methyl-2-oxo-4-(4-phenylpiperidin-1-yl)-1,2-dihydroquinoline-3-carboxamide], 15 nM.

On to `Cn1c(=O)c(C(N)=O)c(N2CCC(c3ccc(OC(F)(F)F)cc3)CC2)c2ccccc21` [Example 108, 1-methyl-2-oxo-4-{4-[4-(trifluoromethoxy)phenyl]piperidin-1-yl}-1,2-dihydroquinoline-3-carboxamide], for which the IC50 stood at 1.8 nM. To `CC[C@H](C)c1ccc2c(N3CCC(C)(c4nc5cc(C)ccc5o4)CC3)c(C#N)c(=O)n(C)c2c1` [Example 266, 7-[(2S)-butan-2-yl]-1-methyl-4-[4-methyl-4-(5-methyl-1,3-benzoxazol-2-yl)piperidin-1-yl]-2-oxo-1,2-dihydroquinoline-3-carbonitrile] belongs 53 nM; to `CCn1c(=O)c(C#N)c(N2CCC(c3ccc(Cl)cc3)CC2)c2ccccc21` [Example 333, 4-[4-(4-chlorophenyl)piperidin-1-yl]-1-ethyl-2-oxo-1,2-dihydroquinoline-3-carbonitrile], 172 nM; to `Cn1c(=O)c(C#N)c(N2CCC(c3ccc(Cl)cc3)CC2)c2ccccc21` [Example 54, 4-[4-(4-chlorophenyl)piperidin-1-yl]-1-methyl-2-oxo-1,2-dihydroquinoline-3-carbonitrile], 14 nM. The figure for `COc1ccc(C2CCN(c3c(C(N)=O)c(=O)n(C)c4cc(C5COC5)ccc34)CC2)cc1` [Example 115, 4-[4-(4-methoxyphenyl)piperidin-1-yl]-1-methyl-7-(oxetan-3-yl)-2-oxo-1,2-dihydroquinoline-3-carboxamide] is 20 nM.

As to `Cc1ccc2oc(C3(C)CCN(c4c(C#N)c(=O)n(C)c5cc(OC6CC6)ccc45)CC3)nc2c1` [Example 244, 7-(cyclopropyloxy)-1-methyl-4-[4-methyl-4-(5-methyl-1,3-benzoxazol-2-yl)piperidin-1-yl]-2-oxo-1,2-dihydroquinoline-3-carbonitrile], the IC50 stood at 4.6 nM. To `Cc1ccc2oc(C3(C)CCN(c4c(C(N)=O)c(=O)n(C)c5ccccc45)CC3)nc2c1` [Example 302, 1-methyl-4-[4-methyl-4-(5-methyl-1,3-benzoxazol-2-yl)piperidin-1-yl]-2-oxo-1,2-dihydroquinoline-3-carboxamide] belongs 1.1 nM; to `Cn1c(=O)c(C#N)c(N2CCC(c3nc(-c4ccccc4)no3)CC2)c2cc(Br)ccc21` [Example 440, 6-bromo-1-methyl-2-oxo-4-[4-(3-phenyl-1,2,4-oxadiazol-5-yl)piperidin-1-yl]-1,2-dihydroquinoline-3-carbonitrile], 8.9 nM.
